Source: patent publication US20090099216A1, “NOVEL ADENINE COMPOUND” (priority 2005, published 2009)
pEC50: −log10 of the molar value.

biological target: T1, Human TLR7 (Homo sapiens, UniProt Q9NYK1); assay: Human TLR7 reporter assay (NF-kB-SEAP) in HEK293 cells; assay type: cell-based; details: hTLR7/seap-293 HEK293 cells, 20 hours incubation, absorbance 405 nm, read-out: human TLR7 binding activity (EC50)
T1 construct: expressed in transfected cells; host or cells: HEK293 (hTLR7/seap-293), stably carrying the TLR7 plasmid and the NF-kB-SEAP reporter plasmid
T1 sequence (Q9NYK1 27-1049): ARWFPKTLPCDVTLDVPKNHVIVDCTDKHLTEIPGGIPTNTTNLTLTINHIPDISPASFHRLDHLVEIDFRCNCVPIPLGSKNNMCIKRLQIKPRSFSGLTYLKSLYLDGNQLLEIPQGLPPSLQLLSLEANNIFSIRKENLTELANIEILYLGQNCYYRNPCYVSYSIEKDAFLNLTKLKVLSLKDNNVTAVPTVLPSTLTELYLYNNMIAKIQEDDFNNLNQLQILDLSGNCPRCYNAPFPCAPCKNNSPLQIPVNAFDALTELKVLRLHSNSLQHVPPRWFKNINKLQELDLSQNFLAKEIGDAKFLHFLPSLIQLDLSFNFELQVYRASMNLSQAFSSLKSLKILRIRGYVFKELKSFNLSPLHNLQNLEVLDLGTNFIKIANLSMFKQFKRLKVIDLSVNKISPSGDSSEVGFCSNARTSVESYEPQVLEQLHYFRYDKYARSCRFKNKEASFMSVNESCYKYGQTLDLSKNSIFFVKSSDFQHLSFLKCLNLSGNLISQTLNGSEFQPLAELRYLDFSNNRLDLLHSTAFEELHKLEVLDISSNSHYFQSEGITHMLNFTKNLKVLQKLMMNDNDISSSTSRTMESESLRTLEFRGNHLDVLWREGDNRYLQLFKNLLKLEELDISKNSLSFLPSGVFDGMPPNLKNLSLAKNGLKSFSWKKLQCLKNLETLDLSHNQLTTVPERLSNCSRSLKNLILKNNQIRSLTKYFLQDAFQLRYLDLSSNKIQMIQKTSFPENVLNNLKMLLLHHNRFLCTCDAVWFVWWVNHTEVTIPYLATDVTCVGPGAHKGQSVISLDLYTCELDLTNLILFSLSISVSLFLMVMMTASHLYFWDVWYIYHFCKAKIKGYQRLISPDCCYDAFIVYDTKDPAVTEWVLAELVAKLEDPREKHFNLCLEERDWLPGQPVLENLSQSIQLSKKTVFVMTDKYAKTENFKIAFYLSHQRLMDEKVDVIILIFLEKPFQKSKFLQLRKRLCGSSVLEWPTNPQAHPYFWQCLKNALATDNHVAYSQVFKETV
Method: Human TLR7 Reporter Assay
Human TLR7 or rat TLR7 plasmid and reporter plasmid (NF-kB-SEAP) stably-induced HEK293 cells were suspended in DMEM media (10% FBS, 1% NEAA, 10 ug/mL blastocidin S HCl, 100 ug/mL Zeocin), and the suspension was seeded in 90 μl/well on 96 well plate (hTLR^7/seap-293: 20000 cells/well, rTLR7/seap-293: 25000 cells/well).
To the cells seeded on 96 well plate was added in 10 μl/well a test compound wherein DMSO stock solution (2 μl) was hundredfold diluted with medium (200 μl) (final concentration; 1 nM-10 μM, common ratio 3). The mixture was stirred tapping in the side of the plate, and then incubated for 20 hours in CO2 incubator. To the cells stimulated by a test compound was added a substrate for reporter assay (substrate for SEAP, pNPP) by 50 μl/well. 10 minutes after the addition of substrate, a quenching solution (4N NaOH) was added by 50 μl/well, and the enzymatic reaction was quenched. Top seal A was attached on the plate, and absorbance was measured by microplate reader (405 nm).

In order of falling pEC50:
1. CCCCOc1nc(N)c2[nH]c(=O)n(CCNCC(=O)OC)c2n1 [Example 1, Methyl N-[2-(6-amino-2-butoxy-7,8-dihydro-8-oxo-9H-purin-9-yl)-ethyl]glycinate]  6.54
2. CCCCOc1nc(N)c2[nH]c(=O)n(CCN[C@@H](CC(=O)OC)C(=O)OC)c2n1 [Example 6, Dimethyl N-[2-(6-amino-2-butoxy-8-oxo-7,8-dihydro-9H-purin-9-yl)ethyl]-L-aspartate]  6.06
3. CCCCOc1nc(N)c2[nH]c(=O)n(CCN[C@@H](CCCCN)C(=O)OC)c2n1 [Example 7, Methyl N^2-[2-(6-amino-2-butoxy-8-oxo-7,8-dihydro-9H-purin-9-yl)ethyl]-L-lysinate]  5.77
